Measured values as given in the NIST ThermoML archive (doi:10.1021/je049633+).

Assay: xn = mol fraction of the nth substance listed
Conditions: Gas, isochoric method

[N-]=[N+]=O [nitrous oxide] + O=C=O
Conditions | molar volume [m3/mol]
238.1 K, 1004.5 kPa, x2 = 0.5959 | 0.001705
238.1 K, 1194.6 kPa, x2 = 0.6953 | 0.001286
243.07 K, 1032.4 kPa, x2 = 0.5959 | 0.001705
243.09 K, 1317 kPa, x2 = 0.6953 | 0.001286
248.05 K, 1059.7 kPa, x2 = 0.5959 | 0.001706
248.11 K, 1355.8 kPa, x2 = 0.6953 | 0.001286
253.04 K, 1086.8 kPa, x2 = 0.5959 | 0.001706
253.1 K, 1393.5 kPa, x2 = 0.6953 | 0.001287
258.09 K, 2081.3 kPa, x2 = 0.1499 | 0.000805
258.11 K, 1431.2 kPa, x2 = 0.6953 | 0.001287
263.02 K, 2626.7 kPa, x2 = 0.9071 | 0.000638
263.06 K, 2148.3 kPa, x2 = 0.1499 | 0.000805
263.08 K, 1140.7 kPa, x2 = 0.5959 | 0.001707
263.08 K, 1469 kPa, x2 = 0.6953 | 0.001287
263.09 K, 2245.7 kPa, x2 = 0.2607 | 0.000759
263.1 K, 2436.3 kPa, x2 = 0.4754 | 0.000668
268.02 K, 2719.9 kPa, x2 = 0.9071 | 0.000635
268.03 K, 2212.6 kPa, x2 = 0.1499 | 0.000806
268.04 K, 1168.2 kPa, x2 = 0.5959 | 0.001707
268.05 K, 1505.5 kPa, x2 = 0.6953 | 0.001287
268.08 K, 2515.8 kPa, x2 = 0.4754 | 0.000669
268.08 K, 2813.7 kPa, x2 = 0.3585 | 0.000579
268.08 K, 2907.1 kPa, x2 = 0.7478 | 0.000559
272.93 K, 1194.4 kPa, x2 = 0.5959 | 0.001708
272.93 K, 3330.4 kPa, x2 = 0.6929 | 0.000486
272.94 K, 1541.4 kPa, x2 = 0.6953 | 0.001288
272.95 K, 2909.1 kPa, x2 = 0.3585 | 0.00058
272.98 K, 3090.5 kPa, x2 = 0.0902 | 0.000512
273.04 K, 2808.9 kPa, x2 = 0.9071 | 0.000636
273.05 K, 2384.1 kPa, x2 = 0.2607 | 0.000759
273.06 K, 3007.9 kPa, x2 = 0.7478 | 0.000559
273.07 K, 2593.6 kPa, x2 = 0.4754 | 0.000669
273.12 K, 2276.8 kPa, x2 = 0.1499 | 0.000806
277.82 K, 3196.6 kPa, x2 = 0.0902 | 0.000513
277.86 K, 3791 kPa, x2 = 0.6099 | 0.000401
277.87 K, 3104 kPa, x2 = 0.7478 | 0.000559
277.94 K, 3453.5 kPa, x2 = 0.6929 | 0.000486
282.66 K, 3300.1 kPa, x2 = 0.0902 | 0.000513
282.82 K, 2743.7 kPa, x2 = 0.4754 | 0.000669
282.82 K, 3939.5 kPa, x2 = 0.6099 | 0.000401
282.83 K, 1245.4 kPa, x2 = 0.5959 | 0.001708
282.83 K, 1612.9 kPa, x2 = 0.6953 | 0.001288
282.83 K, 4250.2 kPa, x2 = 0.8378 | 0.00036
282.84 K, 3094.9 kPa, x2 = 0.3585 | 0.00058
282.9 K, 2980 kPa, x2 = 0.9071 | 0.000636
283.01 K, 2401.3 kPa, x2 = 0.1499 | 0.000806
283.01 K, 2518.2 kPa, x2 = 0.2607 | 0.000759
283.01 K, 3203.9 kPa, x2 = 0.7478 | 0.00056
283.01 K, 3574.6 kPa, x2 = 0.6929 | 0.000486
292.79 K, 3511.2 kPa, x2 = 0.0902 | 0.000513
292.89 K, 4229.6 kPa, x2 = 0.6099 | 0.000401
292.97 K, 1685.2 kPa, x2 = 0.6953 | 0.001289
292.97 K, 2524.4 kPa, x2 = 0.1499 | 0.000806
292.98 K, 1297.8 kPa, x2 = 0.5959 | 0.001709
292.98 K, 3279.6 kPa, x2 = 0.3585 | 0.00058
292.99 K, 3397 kPa, x2 = 0.7478 | 0.00056
292.99 K, 4597 kPa, x2 = 0.8378 | 0.00036
293.06 K, 2897.6 kPa, x2 = 0.4754 | 0.000669
293.06 K, 3153.2 kPa, x2 = 0.9071 | 0.000636
293.06 K, 3809.7 kPa, x2 = 0.6929 | 0.000486
293.11 K, 2651.8 kPa, x2 = 0.2607 | 0.00076
297.92 K, 4370.8 kPa, x2 = 0.6099 | 0.000401
298.04 K, 1323.7 kPa, x2 = 0.5959 | 0.001709
298.04 K, 2970.8 kPa, x2 = 0.4754 | 0.000669
298.04 K, 3235.8 kPa, x2 = 0.9071 | 0.000636
298.04 K, 3923.4 kPa, x2 = 0.6929 | 0.000486
298.05 K, 3617.5 kPa, x2 = 0.0902 | 0.000513
298.06 K, 3490.8 kPa, x2 = 0.7478 | 0.00056
299.02 K, 4795.1 kPa, x2 = 0.8378 | 0.00036
302.04 K, 2647.7 kPa, x2 = 0.1499 | 0.000807
303.02 K, 3458.7 kPa, x2 = 0.3585 | 0.00058
303.13 K, 2781.5 kPa, x2 = 0.2607 | 0.00076
307.87 K, 4646.1 kPa, x2 = 0.6099 | 0.000401
307.97 K, 3546.3 kPa, x2 = 0.3585 | 0.00058
308 K, 1375.9 kPa, x2 = 0.5959 | 0.00171
308 K, 1790.6 kPa, x2 = 0.6953 | 0.00129
308 K, 4148.1 kPa, x2 = 0.6929 | 0.000486
308.01 K, 3399.4 kPa, x2 = 0.9071 | 0.000637
308.02 K, 3818.3 kPa, x2 = 0.0902 | 0.000513
308.03 K, 3676.1 kPa, x2 = 0.7478 | 0.00056
308.07 K, 2845 kPa, x2 = 0.2607 | 0.00076
308.09 K, 5087.6 kPa, x2 = 0.8378 | 0.00036
308.13 K, 3117.6 kPa, x2 = 0.4754 | 0.00067
312.22 K, 2766.9 kPa, x2 = 0.1499 | 0.000807
317.84 K, 4915.4 kPa, x2 = 0.6099 | 0.000401
318.01 K, 2971.6 kPa, x2 = 0.2607 | 0.000761
318.02 K, 5401.8 kPa, x2 = 0.8378 | 0.000361
318.04 K, 3722.1 kPa, x2 = 0.3585 | 0.000581
318.05 K, 4013.5 kPa, x2 = 0.0902 | 0.000513
318.11 K, 1427.6 kPa, x2 = 0.5959 | 0.001711
318.11 K, 3261.7 kPa, x2 = 0.4754 | 0.00067
318.12 K, 1861.3 kPa, x2 = 0.6953 | 0.00129
318.12 K, 3563 kPa, x2 = 0.9071 | 0.000637
318.12 K, 4371.8 kPa, x2 = 0.6929 | 0.000486
318.13 K, 3860.5 kPa, x2 = 0.7478 | 0.00056
322.91 K, 5554.6 kPa, x2 = 0.8378 | 0.000361
323.11 K, 2885.7 kPa, x2 = 0.1499 | 0.000807
323.12 K, 5055.4 kPa, x2 = 0.6099 | 0.000401
327.94 K, 3893.1 kPa, x2 = 0.3585 | 0.000581
327.98 K, 3097.5 kPa, x2 = 0.2607 | 0.000761
328 K, 5712 kPa, x2 = 0.8378 | 0.000361
328.09 K, 1478.4 kPa, x2 = 0.5959 | 0.001712
328.09 K, 3404 kPa, x2 = 0.4754 | 0.00067
328.1 K, 1930.7 kPa, x2 = 0.6953 | 0.001291
328.1 K, 3722.5 kPa, x2 = 0.9071 | 0.000637
328.1 K, 4040.6 kPa, x2 = 0.7478 | 0.000561
328.1 K, 4589.4 kPa, x2 = 0.6929 | 0.000487
328.11 K, 4212.5 kPa, x2 = 0.0902 | 0.000514
328.11 K, 5188.2 kPa, x2 = 0.6099 | 0.000402
333.09 K, 3003.3 kPa, x2 = 0.1499 | 0.000808
333.1 K, 5868.1 kPa, x2 = 0.8378 | 0.000361
338.03 K, 4402.1 kPa, x2 = 0.0902 | 0.000514
338.07 K, 1529 kPa, x2 = 0.5959 | 0.001712
338.07 K, 4218.4 kPa, x2 = 0.7478 | 0.000561
338.07 K, 4804.3 kPa, x2 = 0.6929 | 0.000487
338.08 K, 1999.6 kPa, x2 = 0.6953 | 0.001291
338.08 K, 3880.7 kPa, x2 = 0.9071 | 0.000637
338.08 K, 4065.8 kPa, x2 = 0.3585 | 0.000581
338.09 K, 3223.8 kPa, x2 = 0.2607 | 0.000761
338.09 K, 5449.4 kPa, x2 = 0.6099 | 0.000402
338.11 K, 3545.6 kPa, x2 = 0.4754 | 0.000671
343.08 K, 3119.8 kPa, x2 = 0.1499 | 0.000808
343.08 K, 5578.9 kPa, x2 = 0.6099 | 0.000402
348.02 K, 4592.8 kPa, x2 = 0.0902 | 0.000514
348.05 K, 3346.9 kPa, x2 = 0.2607 | 0.000762
348.05 K, 3684.7 kPa, x2 = 0.4754 | 0.000671
348.06 K, 1579.5 kPa, x2 = 0.5959 | 0.001713
348.06 K, 2068.1 kPa, x2 = 0.6953 | 0.001292
348.06 K, 4036.9 kPa, x2 = 0.9071 | 0.000638
348.06 K, 4394.9 kPa, x2 = 0.7478 | 0.000561
348.06 K, 5017.1 kPa, x2 = 0.6929 | 0.000487
348.07 K, 4234.7 kPa, x2 = 0.3585 | 0.000582
353.04 K, 3235.1 kPa, x2 = 0.1499 | 0.000809
357.91 K, 4567 kPa, x2 = 0.7478 | 0.000561
357.95 K, 2135.6 kPa, x2 = 0.6953 | 0.001293
357.99 K, 1629.5 kPa, x2 = 0.5959 | 0.001714
357.99 K, 5226.8 kPa, x2 = 0.6929 | 0.000487
358.02 K, 3469.7 kPa, x2 = 0.2607 | 0.000762
358.02 K, 3823.2 kPa, x2 = 0.4754 | 0.000671
358.03 K, 4191.9 kPa, x2 = 0.9071 | 0.000638
358.04 K, 3292.6 kPa, x2 = 0.1499 | 0.000809
358.04 K, 4401.6 kPa, x2 = 0.3585 | 0.000582
